This experiment concerns production of amyloid beta protein Aβ(1-42) (γ-secretase) in human WT-APP overexpressing CHO cells. Kind of experiment: Cell-Based γ-Secretase Assay with ELISA Readout. The following applies: read-out: Aβ 42B IC50 (Geometric Mean of 2-6 Determinations). In short, it runs like this:
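Human WT-APP-overexpressing CHO cells were pre-cultured 24 h at 37° C, then exposed to compounds (eleven-point half-log series, 1% final DMSO) for ~24 h. Aβ(1-42) in conditioned media was captured with Aβ(1-42)-specific antibody and detected with Eu-labeled 6e10 by DELFIA TRF. IC50 by nonlinear regression against min/max inhibition controls.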

[1] abbreviates: human WT-APP overexpressing CHO cells, ~24 hours at 37° C., Aβ(1-42) ELISA, footnotes: a = geometric mean of >15 determinations, b = single determination, c = geometric mean of 7-15 determinations.

Counter-ions that a name gives are not always drawn. Like-named read-outs stand apart in the source and are kept apart here.

As to `Cc1cn(-c2ccc3n(c2=O)CCN(CCOc2ccccc2[Si](C)(C)C)C3=O)cn1` [Example 121, 7-(4-methyl-1H-imidazol-1-yl)-2-{2-[2-(trimethylsilyl)phenoxy]ethyl}-3,4-dihydro-2H-pyrido[1,2-a]pyrazine-1,6-dione], the half-maximal inhibitory concentration (IC50) (CHO, 24 h) was determined as 30.2 nM.
Turning to `Cc1cn(-c2ccc3n(c2=O)CCN(CCOc2ccc(F)cc2C2(C(F)(F)F)CCO2)C3=O)cn1` (stereo not drawn) [Example 122, 2-(2-{4-fluoro-2-[2-(trifluoromethyl)oxetan-2-yl]phenoxy}ethyl)-7-(4-methyl-1H-imidazol-1-yl)-3,4-dihydro-2H-pyrido[1,2-a]pyrazine-1,6-dione, trifluoroacetate salt], the IC50 under setting [1] came out at 85.6 nM.
Take `Cc1cn(-c2ccc3n(c2=O)CCN(C(C)C(C)Oc2ccccc2S(F)(F)(F)(F)F)C3=O)cn1` (stereo not drawn) [Example 123, 7-(4-methyl-1H-imidazol-1-yl)-2-{3-[2-(pentafluoro-λ^6-sulfanyl)phenoxy]butan-2-yl}-3,4-dihydro-2H-pyrido[1,2-a]pyrazine-1,6-dione]: under setting [1], the IC50 was 106 nM.
